Experiments:
pERK in ASPC1 cells = experiment: Inhibition of KRas phosphorylation of ERK (Cisbio HTRF pERK assay); conditions: Homo sapiens, ASPC1, read-out: Inhibition (HTRF IC50) of KRas-mediated Phosphorylation of ERK, AsPC-1
pERK in MKN1 cells = experiment: as above; conditions: Homo sapiens, MKN-1, 3 h, read-out: Inhibition (HTRF IC50) of KRas-mediated Phosphorylation of ERK, MKN1
pERK in H358 cells = experiment: as above; conditions: Homo sapiens, NCI-H358, read-out: Inhibition (HTRF IC50) of KRas-mediated Phosphorylation of ERK, H358
pERK in A549 cells = experiment: as above; conditions: Homo sapiens, A549, read-out: Inhibition (HTRF IC50) of KRas-mediated Phosphorylation of ERK, A549
pERK in PSN1 cells = experiment: as above; conditions: Homo sapiens, PSN1, 3 h, read-out: Inhibition (HTRF IC50) of KRas-mediated Phosphorylation of ERK, PSN1
pERK in H727 cells = experiment: as above; conditions: Homo sapiens, NCI-H727, read-out: Inhibition (HTRF IC50) of KRas-mediated Phosphorylation of ERK, H727
KRas G12R = KRas G12R (Homo sapiens, UniProt P01116, G12R); experiment: biochemical;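 further: TR-FRET displacement assay of compound binding to KRas, read after one hour at room temperature, potency from a four-parameter fit of percent-of-control values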
pERK in H460 cells = experiment: Inhibition of KRas phosphorylation of ERK (Cisbio HTRF pERK assay); conditions: Homo sapiens, NCI-H460, read-out: Inhibition (HTRF IC50) of KRas-mediated Phosphorylation of ERK, H460
KRas G12D = KRas G12D (Homo sapiens, UniProt P01116, G12D); experiment: biochemical;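 further: TR-FRET displacement binding assay on KRas, read after a one-hour incubation at room temperature, IC50 fitted from percent-of-control values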
KRas G12V = KRas G12V (Homo sapiens, UniProt P01116, G12V); experiment: biochemical;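 further: KRas binding measured by TR-FRET displacement at room temperature, IC50 fitted from percent of control values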
pERK in HCT116 cells = experiment: Inhibition of KRas phosphorylation of ERK (Cisbio HTRF pERK assay); conditions: Homo sapiens, HCT-116, read-out: Inhibition (HTRF IC50) of KRas-mediated Phosphorylation of ERK, HCT116

Chain of KRas G12D (P01116 1-169 isoform P01116-2 G12D): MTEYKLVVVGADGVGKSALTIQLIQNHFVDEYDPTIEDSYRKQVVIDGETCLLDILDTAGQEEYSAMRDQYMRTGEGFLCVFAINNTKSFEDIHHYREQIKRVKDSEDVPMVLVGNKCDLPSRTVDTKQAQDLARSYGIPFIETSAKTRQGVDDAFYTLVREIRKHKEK
Chain of KRas G12R (P01116 1-169 isoform P01116-2 G12R): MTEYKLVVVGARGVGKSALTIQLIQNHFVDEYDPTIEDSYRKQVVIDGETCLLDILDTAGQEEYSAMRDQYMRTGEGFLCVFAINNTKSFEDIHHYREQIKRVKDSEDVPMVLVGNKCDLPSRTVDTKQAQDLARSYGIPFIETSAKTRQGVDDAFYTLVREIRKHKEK
Chain of KRas G12V (P01116 1-169 isoform P01116-2 G12V): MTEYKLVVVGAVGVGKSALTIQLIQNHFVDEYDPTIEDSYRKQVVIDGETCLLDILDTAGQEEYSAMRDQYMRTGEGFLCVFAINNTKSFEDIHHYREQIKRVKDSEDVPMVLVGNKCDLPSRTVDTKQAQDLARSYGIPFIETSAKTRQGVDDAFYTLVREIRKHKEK

IC50 (pERK in ASPC1 cells) [nM]	IC50 (pERK in MKN1 cells) [nM]	IC50 (pERK in H358 cells) [nM]	IC50 (pERK in A549 cells) [nM]	IC50 (pERK in PSN1 cells) [nM]	IC50 (pERK in H727 cells) [nM]	IC50 (KRas G12R) [nM]	IC50 (pERK in H460 cells) [nM]	IC50 (KRas G12D) [nM]	IC50 (KRas G12V) [nM]	IC50 (pERK in HCT116 cells) [nM]	SMILES
17	10	6	11	2860	24	≤ 2	17	≤ 2	≤ 2	77	CCc1c(F)ccc2cc(O)cc(-c3ncc4c(N5CCCC6(CSC6)C5)nc(OC[C@@]56CCCN5C[C@H](F)C6)nc4c3F)c12 [Example 365, 5-ethyl-6-fluoro-4-(8-fluoro-2-(((2R,7aS)-2-fluorohexahydro-1H-pyrrolizin-7a-yl)methoxy)-4-(2-thia-6-azaspiro[3.5]nonan-6-yl)pyrido[4,3-d]pyrimidin-7-yl)naphthalen-2-ol]
13	71	27	576	7480	63	≤ 2	805	≤ 2	≤ 2	1350	CCc1c(F)ccc2cc(O)cc(-c3ncc4c(N5CCCn6nc(C(=O)NC(C)C)cc6C5)nc(OC[C@@]56CCCN5C[C@H](F)C6)nc4c3F)c12 [Example 357, 5-(7-(8-ethyl-7-fluoro-3-hydroxynaphthalen-1-yl)-8-fluoro-2-(((2R,7aS)-2-fluorohexahydro-1H-pyrrolizin-7a-yl)methoxy)pyrido[4,3-d]pyrimidin-4-yl)-N-isopropyl-5,6,7,8-tetrahydro-4H-pyrazolo[1,5-a][1,4]diazepine-2-carboxamide]
8	3	17	122	6820	49	≤ 2	85	≤ 2	≤ 2	231	CCc1c(F)ccc2cc(O)cc(-c3ncc4c(N5CCOC[C@@](C)(O)C5)nc(OCC5(CN(C)C)CC5)nc4c3F)c12 [Example 361, (S)-4-(2-((1-((dimethylamino)methyl)cyclopropyl)methoxy)-7-(8-ethyl-7-fluoro-3-hydroxynaphthalen-1-yl)-8-fluoropyrido[4,3-d]pyrimidin-4-yl)-6-methyl-1,4-oxazepan-6-ol]
19	34	11	242	5980	51	≤ 2	413	≤ 2	≤ 2	586	CN(C)C(=O)c1cc2n(n1)CCCN(c1nc(OC[C@@]34CCCN3C[C@H](F)C4)nc3c(F)c(-c4cc(O)cc5ccc(F)c(Br)c45)ncc13)C2 [Example 412, 5-(7-(8-bromo-7-fluoro-3-hydroxynaphthalen-1-yl)-8-fluoro-2-(((2R,7aS)-2-fluorohexahydro-1H-pyrrolizin-7a-yl)methoxy)pyrido[4,3-d]pyrimidin-4-yl)-N,N-dimethyl-5,6,7,8-tetrahydro-4H-pyrazolo[1,5-a][1,4]diazepine-2-carboxamide]
25	3	11	74	596	32	3	52	≤ 2	≤ 2	60	C[C@@]1(O)CCCN(c2nc(OC[C@@]34CCCN3C[C@H](F)C4)nc3c(F)c(-c4cc(O)cc5ccc(F)c(Cl)c45)ncc23)C1 [Example 418, (R)-1-(7-(8-chloro-7-fluoro-3-hydroxynaphthalen-1-yl)-8-fluoro-2-(((2R,7aS)-2-fluorohexahydro-1H-pyrrolizin-7a-yl)methoxy)pyrido[4,3-d]pyrimidin-4-yl)-3-methylpiperidin-3-ol]
12	4	3	44	9770	15	≤ 2	131	≤ 2	≤ 2	167	CCc1c(F)ccc2cc(O)cc(-c3ncc4c(N5CCCn6nc(C(=O)N(C)CC)cc6C5)nc(OC[C@@]56CCCN5C[C@H](F)C6)nc4c3F)c12 [Example 358, N-ethyl-5-(7-(8-ethyl-7-fluoro-3-hydroxynaphthalen-1-yl)-8-fluoro-2-(((2R,7aS)-2-fluorotetrahydro-1H-pyrrolizin-7a(5H)-yl)methoxy)pyrido[4,3-d]pyrimidin-4-yl)-N-methyl-5,6,7,8-tetrahydro-4H-pyrazolo[1,5-a][1,4]diazepine-2-carboxamide]
8	2	6	23	1040	25	≤ 2	27	≤ 2	≤ 2	45	CCc1c(F)ccc2cc(O)cc(-c3ncc4c(N5CCC[C@@](C)(O)C5)nc(OC[C@@]56CCCN5[C@H](COC(=O)N5CCOCC5)CC6)nc4c3F)c12 [Example 511, ((3S,7aS)-7a-(((7-(8-ethyl-7-fluoro-3-hydroxynaphthalen-1-yl)-8-fluoro-4-((R)-3-hydroxy-3-methylpiperidin-1-yl)pyrido[4,3-d]pyrimidin-2-yl)oxy)methyl)hexahydro-1H-pyrrolizin-3-yl)methyl morpholine-4-carboxylate]
12	3	4	34	514	14	≤ 2	51	≤ 2	≤ 2	46	Oc1cc(-c2ncc3c(N4CC5CC(O)C(C5)C4)nc(OC[C@@]45CCCN4C[C@H](F)C5)nc3c2F)c2c(Br)c(F)ccc2c1 (stereo partly drawn) [Example 402, 3-(7-(8-bromo-7-fluoro-3-hydroxynaphthalen-1-yl)-8-fluoro-2-(((2R,7aS)-2-fluorohexahydro-1H-pyrrolizin-7a-yl)methoxy)pyrido[4,3-d]pyrimidin-4-yl)-3-azabicyclo[3.2.1]octan-6-ol]
20	5	5	28	1960	20		34			24	CCc1c(F)ccc2cc(O)cc(-c3ncc4c(N5CCCOCC5)nc(OC[C@@]56CCCN5C[C@H](F)C6)nc4c3F)c12 [Example 315, 5-ethyl-6-fluoro-4-(8-fluoro-2-(((2R,7aS)-2-fluorohexahydro-1H-pyrrolizin-7a-yl)methoxy)-4-(1,4-oxazepan-4-yl)pyrido[4,3-d]pyrimidin-7-yl)naphthalen-2-ol]
35	3	14	95	1440	22		99			61	CCc1c(F)ccc2cc(O)cc(-c3ncc4c(N5CCC[C@]6(C5)C[C@@H](O)C6)nc(OC[C@@]56CCCN5C[C@H](F)C6)nc4c3F)c12 (single isomer, unassigned) [Example 324]
8	1	9	51	2040	32		69			30	CCc1c(F)ccc2cc(O)cc(-c3ncc4c(N5CCC[C@@](C)(O)C5)nc(OCC5(CN(C)C)CC5)nc4c3F)c12 [Example 316, (R)-1-(2-((1-((dimethylamino)methyl)cyclopropyl)methoxy)-7-(8-ethyl-7-fluoro-3-hydroxynaphthalen-1-yl)-8-fluoropyrido[4,3-d]pyrimidin-4-yl)-3-methylpiperidin-3-ol]

— patent publication US12398154B2, “Azaquinazoline pan-KRas inhibitors” (Mirati Therapeutics, Inc., priority 2020, dated 2025)
